Experimental data taken from patent US8541363B2, “Pyruvamide compounds as inhibitors of dust mite group 1 peptidase allergen and their use” (St George's Hosptial Medical School, priority 2010, dated 2013).
Like-named read-outs stand apart in the source and are kept apart here.

Biological target: Der p 1 (Dermatophagoides pteronyssinus (European house dust mite), UniProt P08176)
Assay: Der p 1 enzyme activity assay (FRET fluorogenic substrate)
Assay type: biochemical
Procedure: The fluorogenic substrate used for measuring Der p 1 proteolytic activity was 2-aminobenzoylvalylalanylnorleucylseryl-(3-nitro)tyrosinyl aspartamide.
Test compounds were dissolved in dry DMSO and maintained at 4° C. as stock solutions until being diluted for use in screening assays. Final concentration of DMSO in all enzymatic assays was 0.5% v/v.
Reaction mixtures were assembled in a 96-well plate format (Perkin Elmer Optiplate 96F, Perkin Elmer LAS, Seer Green, Buckinghamshire, UK) using a Perkin Elmer MultiPROBE II Plus HTS EX robot with Gripper attachment. […] Dithiothreitol (DTT, 10 μL/well, 1 mM final concentration) was then added together with 10 μL of Der p 1 dissolved at 2.5 μg/mL in reaction buffer supplemented with 1 mM DTT. […] The plate was immediately transferred to a fluorescence plate reader (Perkin Elmer Fusion Alpha-FP or Perkin Elmer Envision) equipped with a temperature-controlled carrier set at 30° C. and the reaction followed by excitation/emission at 330/420 nm.
Inhibitory activity was analysed from progress curves of reactions in the presence of a range of inhibitor concentrations.
Initial velocity in each well was converted to fractional activity by Equation 1: Fractional activity=(Initial rate at inhibitor concentration[X]/Initial rate at inhibitor concentration zero)*100 Equation 1:
Then, IC50 was determined by fitting the data of fractional activity and inhibitor concentration to a 4-parameter logistic curve, using Equation 2: V=Vmin+[Vmax−Vmin]/[1+(X/IC50)Hillslope] […] Biological Data—Der p 1 Enzyme Assay

[1] = threshold stated in text, read-out: Der p 1 IC50

Sequence of Der p 1 (P08176 99-320): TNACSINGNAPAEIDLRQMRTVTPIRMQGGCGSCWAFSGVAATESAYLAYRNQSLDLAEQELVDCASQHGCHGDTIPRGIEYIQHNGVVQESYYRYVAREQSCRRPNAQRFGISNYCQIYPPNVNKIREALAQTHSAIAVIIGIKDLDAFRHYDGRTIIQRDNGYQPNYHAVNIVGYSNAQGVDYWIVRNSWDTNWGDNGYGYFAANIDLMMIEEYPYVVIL

| IC50 [1] [nM] | SMILES | IC50 (Der p 1 IC50) [nM] |
| --- | --- | --- |
| < 200 | CC(C)[C@H](NC(=O)[C@H](C)NC(=O)[C@H](Cc1ccccc1C(F)(F)F)NC(=O)c1ccncc1)C(=O)C(=O)NCc1ccccc1 [PVA-152] |  |
| < 20 | CC(C)[C@H](NC(=O)[C@H](C)NC(=O)[C@@H](NC(=O)c1cccc2[nH]ncc12)C(C)(C)C)C(=O)C(=O)NCc1ccccc1 [PVA-149] |  |
| < 2000 | CCCCC(NC(=O)[C@H](C)NC(=O)[C@H](Cc1ccccc1)NC(=O)c1ccccc1)C(=O)C(=O)NCc1ccncc1 (some centres unmarked) [PVA-040] |  |
| < 200 | CC(C)[C@H](NC(=O)[C@H](C)NC(=O)[C@H](Cc1ccccc1)NC(=O)c1ccccc1)C(=O)C(=O)NCCc1ccccc1 [PVA-010] |  |
| < 20 | CC(C)[C@H](NC(=O)[C@H](C)NC(=O)[C@@H](NC(=O)c1ccccc1)C(C)(C)C)C(=O)C(=O)NCc1ccc(C#N)cc1 [PVA-192] |  |
| < 20 | CC(C)[C@H](NC(=O)[C@H](C)NC(=O)[C@@H](NC(=O)c1ccccc1)C(C)(C)C)C(=O)C(=O)NCc1ccc(CN(C)C)cc1 [PVA-164] |  |
| < 200 | CC(C)[C@H](NC(=O)[C@H](C)NC(=O)[C@@H](NC(=O)c1ccccc1)C(C)(C)C)C(=O)C(=O)NCc1ccc(CN2CCCCC2)cc1 [PVA-165] |  |
| < 200 | CC(C)[C@H](NC(=O)[C@H](C)NC(=O)[C@H](Cc1ccccc1)NC(=O)c1ccncc1)C(=O)C(=O)NC1CCC1 [PVA-174] |  |
| < 200 | CC(C)[C@H](NC(=O)[C@H](C)NC(=O)[C@@H](Cc1ccccc1)NC(=O)c1ccc(-c2ccccc2)cc1)C(=O)C(=O)NC1CCCCC1 [PVA-019] |  |
| < 200 | CC(C)[C@H](NC(=O)[C@H](C)NC(=O)[C@@H](NC(=O)c1cccc2ccccc12)C(C)(C)C)C(=O)C(=O)NCc1ccccc1 [PVA-056] |  |
| < 200 | CC(C)[C@H](NC(=O)[C@H](C)NC(=O)[C@@H](NC(=O)c1ccccc1)C(C)(C)C)C(=O)C(=O)N[C@@H]1CCc2ccccc21 [PVA-109] |  |
| < 20 | CC(C)[C@H](NC(=O)[C@H](C)NC(=O)[C@@H](NC(=O)C1CC[N+](C)(C)CC1)C(C)(C)C)C(=O)C(=O)NC1CCCCC1 [PVA-153] |  |
| < 20 | CC(C)[C@H](NC(=O)[C@H](C)NC(=O)[C@@H](N1Cc2ccccc2C1=O)C(C)(C)C)C(=O)C(=O)NCc1ccc(S(N)(=O)=O)cc1 [PVA-206] |  |
| < 20 | CC(C)[C@H](NC(=O)[C@H](C)NC(=O)[C@@H](NC(=O)c1ccnc2ccccc12)C(C)(C)C)C(=O)C(=O)NC1CCCCC1 [PVA-071] |  |
| < 200 | CC(C)[C@H](NC(=O)[C@H](C)NC(=O)[C@@H](Cc1ccncc1)NC(=O)c1ccccc1)C(=O)C(=O)NC1CCCCC1 [PVA-036] |  |
| < 200 | CC(C)[C@H](NC(=O)[C@H](C)NC(=O)[C@@H](Cc1ccc(-c2ccccc2)cc1)NC(=O)c1ccccc1)C(=O)C(=O)NCc1ccccc1 [PVA-033] |  |
| < 20 | CC(C)[C@H](NC(=O)[C@H](C)NC(=O)[C@@H](NC(=O)c1cccc2nc[nH]c12)C(C)(C)C)C(=O)C(=O)NCc1ccccc1 [PVA-157] |  |
| < 20 | CC(C)[C@H](NC(=O)[C@H](C)NC(=O)[C@@H](NC(=O)c1ccnc2ccccc12)C(C)(C)C)C(=O)C(=O)NCc1ccc(C(N)=O)cc1 [PVA-188] |  |
| < 20 | CC(C)[C@H](NC(=O)[C@H](C)NC(=O)[C@@H](Cc1ccccc1)NC(=O)c1ccncc1)C(=O)C(=O)NCc1ccccc1 [PVA-035] |  |
| < 200 | CC(C)C(NC(=O)[C@H](C)NC(=O)[C@@H](Cc1ccccc1)NC(=O)c1ccncc1)C(=O)C(=O)NC1CCCCC1 (stereo in doubt) [PVA-020] |  |
| < 20 | CC(C)[C@H](NC(=O)[C@H](C)NC(=O)[C@@H](NC(=O)c1ccccc1)C(C)(C)C)C(=O)C(=O)NCc1ccc(N2CCN(C)CC2)nc1 [PVA-195] |  |
| < 2000 | CC(C)[C@H](NC(=O)[C@H](C)NC(=O)[C@H](Cc1ccccc1)NC(=O)c1ccnc(N2CCOCC2)c1)C(=O)C(=O)NC1CCCCC1 [PVA-069] |  |
| < 200 | CC(C)[C@H](NC(=O)[C@H](C)NC(=O)[C@H](Cc1ccccc1)NC(=O)c1cccc2ccccc12)C(=O)C(=O)NCC(=O)N1CCN(C)CC1 [PVA-095] |  |
| < 20 | COC(=O)c1cccc(CNC(=O)C(=O)[C@@H](NC(=O)[C@H](C)NC(=O)[C@@H](NC(=O)c2ccccc2)C(C)(C)C)C(C)C)c1 [PVA-199] |  |
| < 20 | CC(C)[C@H](NC(=O)[C@H](C)NC(=O)[C@@H](N1Cc2ccccc2C1=O)C(C)(C)C)C(=O)C(=O)NCc1ccc(N2CCN(C)CC2)nc1 [PVA-213] |  |
| < 200 | COc1ccc(CNC(=O)C(=O)[C@@H](NC(=O)[C@H](C)NC(=O)[C@H](Cc2ccccc2)NC(=O)c2ccncc2)C(C)C)cc1 [PVA-159] |  |

| IC50 [1] [nM] | SMILES | IC50 (Der p 1 IC50) [nM] |
| --- | --- | --- |
| < 200 | CC(C)[C@H](NC(=O)[C@H](C)NC(=O)[C@H](Cc1ccccc1)NC(=O)c1ccccc1)C(=O)C(=O)NCc1ccc2c(c1)OCO2 [PVA-041] |  |
| < 20 | Cc1ccccc1C[C@H](NC(=O)c1ccncc1)C(=O)N[C@@H](C)C(=O)N[C@H](C(=O)C(=O)NCc1ccccc1)C(C)C [PVA-151] |  |
| < 200 | CC(C)[C@H](NC(=O)[C@H](C)NC(=O)[C@@H](NC(=O)c1ccc(OCCN2CCCC2)cc1)C(C)(C)C)C(=O)C(=O)NC1CCCCC1 [PVA-076] |  |
| < 20 | CC(C)[C@H](NC(=O)[C@H](C)NC(=O)[C@@H](N1Cc2ccccc2C1=O)C(C)(C)C)C(=O)C(=O)NC1CC1 [PVA-177] |  |
| < 200 | CC(C)[C@H](NC(=O)[C@H](C)NC(=O)[C@@H](NC(=O)c1ccc(N2CCOCC2)nc1)C(C)(C)C)C(=O)C(=O)NC1CCCCC1 [PVA-049] |  |
| < 20 | CC(C)[C@H](NC(=O)[C@H](C)NC(=O)[C@@H](NC(=O)c1ccccc1)C(C)(C)C)C(=O)C(=O)NCc1ccc(=O)[nH]c1 [PVA-134] |  |
| < 200 | CC(C)[C@H](NC(=O)[C@H](C)NC(=O)[C@@H](NC(=O)c1cnccn1)C(C)(C)C)C(=O)C(=O)NC1CCCCC1 [PVA-054] |  |
| < 200 | Cc1cc(C(=O)N[C@H](C(=O)N[C@@H](C)C(=O)N[C@H](C(=O)C(=O)NC2CC2)C(C)C)C(C)(C)C)[nH]n1 [PVA-141] |  |
|  | CC(C)[C@H](NC(=O)[C@H](C)NC(=O)[C@H](Cc1ccccc1)NC(=O)c1ccccc1)C(=O)C(=O)NCC(=O)N1CCN(C(C)C)CC1 [PVA-092] | < 20 |
| < 2000 | CC(C)[C@H](NC(=O)[C@H](C)NC(=O)C1CCCN1C(=O)c1ccccc1)C(=O)C(=O)NCC(=O)N1CCN(C)CC1 (some centres unmarked) [PVA-140] |  |
| < 200 | CC(C)[C@H](NC(=O)[C@H](C)NC(=O)[C@@H](NC(=O)c1ccccc1)C(C)(C)C)C(=O)C(=O)NCc1ccccc1Cl [PVA-193] |  |
| < 200 | COCCNC(=O)C(=O)[C@@H](NC(=O)[C@H](C)NC(=O)[C@H](Cc1ccccc1)NC(=O)c1ccccc1)C(C)C [PVA-046] |  |
| < 20 | CC(C)[C@H](NC(=O)[C@H](C)NC(=O)[C@@H](NC(=O)c1ccccc1)C12CC3CC(CC(C3)C1)C2)C(=O)C(=O)NCc1ccc(S(N)(=O)=O)cc1 [PVA-214] |  |
|  | CC(C)[C@@H](NC(=O)[C@H](C)NC(=O)[C@@H](NC(=O)c1ccncc1)C(C)(C)C)C(=O)C(=O)NC1CCCCC1 [PVA-086] | < 200 |
| < 200 | CC(C)[C@H](NC(=O)[C@H](C)NC(=O)C1Cc2ccccc2N1C(=O)c1ccccc1)C(=O)C(=O)NCc1ccccc1 (some centres unmarked) [PVA-123] |  |
| < 2000 | CCCC[C@H](NC(=O)[C@H](C)NC(=O)[C@@H](Cc1ccccc1)NC(=O)c1ccc(N2CCN(C)CC2)cc1)C(=O)C(=O)NC1CCCCC1 [PVA-043] |  |
| < 20 | CC(C)[C@H](NC(=O)[C@H](C)NC(=O)[C@@H](NC(=O)c1ccnc2ccccc12)C(C)(C)C)C(=O)C(=O)NCC(=O)N1CCN(C(C)C)CC1 [PVA-187] |  |
| < 20 | CC(C)[C@H](NC(=O)[C@H](C)NC(=O)[C@@H](NC(=O)c1ccccc1)C(C)(C)C)C(=O)C(N)=O [PVA-118] |  |
| < 2000 | CC(C)[C@H](NC(=O)[C@H](C)NC(=O)C(C)(C)NC(=O)c1ccccc1)C(=O)C(=O)NC1CCCCC1 [PVA-090] |  |
| < 200 | CC(C)[C@H](NC(=O)[C@H](C)NC(=O)[C@@H](NC(=O)c1ccccc1)C(C)(C)C)C(=O)C(=O)NCc1nccn1C [PVA-166] |  |
| < 200 | CC(C)[C@H](NC(=O)[C@H](C)NC(=O)[C@@H](NC(=O)c1ccncn1)C(C)(C)C)C(=O)C(=O)NC1CCCCC1 [PVA-082] |  |
| < 20 | CC(C)[C@H](NC(=O)[C@H](C)NC(=O)[C@@H](NC(=O)c1ccccc1S(C)(=O)=O)C(C)(C)C)C(=O)C(=O)NCc1ccccc1 [PVA-108] |  |
| < 200 | CC(C)[C@H](NC(=O)[C@H](C)NC(=O)[C@@H](NC(=O)c1ccccc1)C(C)(C)C)C(=O)C(=O)NCC1CCN(C)CC1 [PVA-163] |  |
| < 20 | CC(C)[C@H](NC(=O)[C@H](C)NC(=O)[C@@H](NC(=O)c1cncc2ccccc12)C(C)(C)C)C(=O)C(=O)NC1CCCCC1 [PVA-073] |  |
| < 20 | CC(C)[C@H](NC(=O)[C@H](C)NC(=O)[C@@H](NC(=O)c1ccccc1)C(C)(C)C)C(=O)C(=O)NCc1ccc(N2CCN(C)CC2)cc1 [PVA-162] |  |
| < 200 | CC(C)[C@H](NC(=O)[C@H](C)NC(=O)[C@H](Cc1ccccc1)NC(=O)c1ccccc1)C(=O)C(=O)NC1CCOCC1 [PVA-044] |  |

| SMILES | IC50 [1] [nM] | IC50 (Der p 1 IC50) [nM] |
| --- | --- | --- |
| CC(C)[C@H](NC(=O)[C@H](C)NC(=O)[C@H](Cc1ccccc1)NC(=O)c1ccccc1)C(=O)C(=O)NCC(=O)N1CCC(N(C)C)CC1 [PVA-093] | < 20 |  |
